The values below come from publication PMC3162021 (PLoS ONE, 2011).

Each structure is given as a SMILES string. Numbering of substitutions follows the chain as printed.

One experiment deals with T1, α1α2.
T1 construct: gene Glra1; one fused subunit: α1 upstream of the TM3-4 loop (ECD to TM3), then α2 intracellular loop plus TM4; HEK 293
Description: whole-cell voltage clamp, concentration-response. The experiment is classed as cell-based, Rattus norvegicus. Particulars: agonist; pH 7.4, 20-24 °C, -60 mV. The source says: whole-cell voltage clamp, concentration-response on α1α2

The target of experiment [1] is T2, α2 GlyR (Rattus norvegicus, UniProt P22771, A288G/T86A).
T2 construct: gene Glra2; homomeric α2, expressed in HEK 293 cells; T59, A261, A303 (T59 fits splice form alpha-2A)
T2 sequence (P22771 28-452 T86A/A288G): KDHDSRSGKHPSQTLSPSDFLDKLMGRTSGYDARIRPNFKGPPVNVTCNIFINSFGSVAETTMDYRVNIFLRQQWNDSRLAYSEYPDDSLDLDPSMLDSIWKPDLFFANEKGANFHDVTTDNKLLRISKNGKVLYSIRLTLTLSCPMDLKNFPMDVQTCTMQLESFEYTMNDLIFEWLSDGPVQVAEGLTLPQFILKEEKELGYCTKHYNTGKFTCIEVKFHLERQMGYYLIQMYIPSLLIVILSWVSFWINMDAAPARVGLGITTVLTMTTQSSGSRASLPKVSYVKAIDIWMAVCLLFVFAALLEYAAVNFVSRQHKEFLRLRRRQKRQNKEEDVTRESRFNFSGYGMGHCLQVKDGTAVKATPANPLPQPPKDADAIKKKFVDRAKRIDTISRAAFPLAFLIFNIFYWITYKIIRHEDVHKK
Briefly: whole-cell voltage clamp, concentration-response. The class given is cell-based. The source says: (§1) whole-cell voltage clamp, concentration-response on α2 GlyR

In experiment [2] the target is T3, α2 GlyR (Rattus norvegicus, UniProt P22771, T86A).
T3 construct: gene Glra2; homomeric α2, expressed in HEK 293 cells; T59, A261, A303 (T59 fits splice form alpha-2A)
T3 sequence (P22771 28-452 T86A): T2 sequence (P22771 28-452 T86A/A288G) with G261A
Description: whole-cell voltage clamp, concentration-response. The class given is cell-based.
Excerpt: as §1

Experiment [3] addresses T4, α2 GlyR (Rattus norvegicus, UniProt P22771).
T4 construct: gene Glra2; homomeric α2, expressed in HEK 293 cells; T59, A261, A303 (T59 fits splice form alpha-2A)
T4 sequence (P22771 28-452): T2 sequence (P22771 28-452 T86A/A288G) with A59T, G261A
Briefly: whole-cell voltage clamp, concentration-response. The experiment is classed as cell-based.
Excerpt: as §1

The target of experiment [4] is T5, α2 GlyR (Rattus norvegicus, UniProt P22771, A288G).
T5 construct: gene Glra2; homomeric α2, expressed in HEK 293 cells; T59, A261, A303 (T59 fits splice form alpha-2A)
T5 sequence (P22771 28-452 A288G): T2 sequence (P22771 28-452 T86A/A288G) with A59T
Briefly: whole-cell voltage clamp, concentration-response. The class given is cell-based.
Excerpt: as §1

In experiment [5] the target is T6, α2 GlyR (Rattus norvegicus, UniProt P22771, A288G/A330S/T86A).
T6 construct: gene Glra2; homomeric α2, expressed in HEK 293 cells; T59, A261, A303 (T59 fits splice form alpha-2A)
T6 sequence (P22771 28-452 T86A/A288G/A330S): T2 sequence (P22771 28-452 T86A/A288G) with A303S
Briefly: whole-cell voltage clamp, concentration-response. The experiment is classed as cell-based.
Excerpt: as §1

For the next experiment, the system named is T7, α2α1.
T7 construct: gene Glra2; one fused subunit: α2 upstream of the TM3-4 loop (ECD to TM3), then α1 intracellular loop plus TM4; HEK 293
Briefly: whole-cell voltage clamp, concentration-response. The experiment is classed as cell-based, Rattus norvegicus. Particulars: agonist; pH 7.4, 20-24 °C, -60 mV. From the text:
whole-cell voltage clamp, concentration-response on α2α1

In experiment [6] the target is T4, α2 GlyR. Briefly: whole-cell voltage clamp, modulation of glycine current. The class given is cell-based. The conditions noted are these: positive allosteric modulator; glycine at EC10, co-applied; pH 7.4, 20-24 °C.
Another experiment addresses T8, α1 GlyR (Rattus norvegicus, UniProt P07727).
T8 construct: gene Glra1; homomeric α1, expressed in HEK 293 cells from pCI or pcDNA3; A52, I240, G254, S296, K385 (mature numbering); K385 fits the form without the 8-residue loop insert
T8 sequence (P07727 29-449 isoform P07727-2): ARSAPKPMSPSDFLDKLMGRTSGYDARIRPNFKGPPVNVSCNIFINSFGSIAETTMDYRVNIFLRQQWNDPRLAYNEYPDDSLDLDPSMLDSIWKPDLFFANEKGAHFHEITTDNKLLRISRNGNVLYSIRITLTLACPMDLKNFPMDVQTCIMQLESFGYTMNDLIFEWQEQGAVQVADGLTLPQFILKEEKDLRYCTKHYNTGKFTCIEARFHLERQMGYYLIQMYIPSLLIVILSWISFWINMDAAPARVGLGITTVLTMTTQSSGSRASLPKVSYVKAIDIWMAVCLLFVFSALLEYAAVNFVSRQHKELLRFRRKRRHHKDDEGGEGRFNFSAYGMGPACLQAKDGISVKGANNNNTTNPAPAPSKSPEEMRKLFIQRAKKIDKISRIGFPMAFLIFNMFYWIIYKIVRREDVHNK
The description is as above. The conditions noted are these: positive allosteric modulator; glycine at EC10, co-applied; pH 7.4, 20-24 °C. The experiment is classed as cell-based.

Experiment [7] addresses T4, α2 GlyR. The experiment is described as above. The experiment is classed as cell-based. Particulars: allosteric inhibitor; glycine at EC10, co-applied; pH 7.4, 20-24 °C.

For orientation: EC50 means the midpoint of the concentration-response curve. Higher therefore signals weaker potency. With `NCC(=O)O` [glycine], the EC50 with α1α2 turned out to be 86 ± 3 µM; on α2 GlyR [1], 76 ± 2 µM; at α2 GlyR [2] it was 63 ± 1 µM; on α2 GlyR [3], 120 ± 6 µM; at α2 GlyR [4], 217 ± 6 µM; at α2 GlyR [5] it was 102 ± 2 µM. In the experiment with α2α1, the EC50 was determined as 111 ± 1 µM.

For the compound `CCCCC/C=C\C/C=C\C/C=C\C/C=C\CCCC(=O)NCCO` [AEA], the “% potentiation at 10 μM” value on α2 GlyR [6] is “showed consistent positive allosteric modulation of all the GlyR isoforms”; on α1 GlyR, “AEA, anandamide”.

Consider `CCCCC/C=C\C/C=C\C/C=C\C/C=C\CCCC(=O)NCC(=O)O` [NA-Gly], for which the “% change of current at 10 μM” value at α2 GlyR [7] is reported as −56±5%. The “% potentiation at 10 μM” value at α1 GlyR is reported as 101±11%.
